According to the supplement of paper PMC10307832:

Assays:
Assay in all cases: relative viability (nuclei count vs DMSO), 5 days (fraction); higher = more cells survive
Tosedostat + Pictilisib = compound: CC(C)C[C@@H](C(=O)N[C@H](C(=O)OC1CCCC1)c1ccccc1)[C@H](O)C(=O)NO [Tosedostat] + CS(=O)(=O)N1CCN(Cc2cc3nc(-c4cccc5[nH]ncc45)nc(N4CCOCC4)c3s2)CC1 [Pictilisib] (partner 1 µM)
Outline: (§1)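 For relative viability, nuclei counts in treated wells were divided by those in vehicle wells. Lung cancer cell lines had been pin-tool dosed in 1536-well plates the day after seeding and cultured for 5 days, then fixed and stained in one step (final 0.05% Triton X-100, 1% formaldehyde, 1 ug/ml Hoechst) and imaged at 4×. Doses were one drug alone or a fixed anchor-drug dose plus five library-drug doses (not always all listed) in √10 steps, and values are duplicate-plate medians.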

[1] = compound: CC1=NN=C(O1)C2=NN=C(C=C2)N3CCC(CC3)OC4=C(C=CC(=C4)F)Cl + Cc1cc(Nc2cc(N3CCN(C)CC3)nc(Sc3ccc(NC(=O)C4CC4)cc3)n2)n[nH]1 [Tozasertib] (partner 0.1 µM)
Outline: as §1

[2] = compound: CC1=NN=C(O1)C2=NN=C(C=C2)N3CCC(CC3)OC4=C(C=CC(=C4)F)Cl + O=C(c1cc(Cc2n[nH]c(=O)c3ccccc23)ccc1F)N1CCN(C(=O)C2CC2)CC1 [Olaparib] (partner 8 µM)
Outline: as §1

Tosedostat + Foretinib = compound: CC(C)C[C@@H](C(=O)N[C@H](C(=O)OC1CCCC1)c1ccccc1)[C@H](O)C(=O)NO [Tosedostat] + COc1cc2c(Oc3ccc(NC(=O)C4(C(=O)Nc5ccc(F)cc5)CC4)cc3F)ccnc2cc1OCCCN1CCOCC1 [Foretinib] (partner 0.25 µM)
Outline: as §1

Cell Line | relative viability (Tosedostat + Pictilisib; first compound 0.02 µM) | relative viability (Tosedostat + Pictilisib; first compound 0.06325 µM) | relative viability (Tosedostat + Pictilisib; first compound 0.2 µM) | relative viability (Tosedostat + Pictilisib; first compound 0.6325 µM) | relative viability (Tosedostat + Pictilisib; first compound 2 µM) | relative viability ([1]; first compound 0.253 µM) | relative viability ([1]; first compound 0.8 µM) | relative viability ([1]; first compound 2.53 µM) | relative viability ([1]; first compound 8 µM) | relative viability ([2]; first compound 0.253 µM) | relative viability ([2]; first compound 0.8 µM) | relative viability ([2]; first compound 2.53 µM) | relative viability ([2]; first compound 8 µM) | relative viability (Tosedostat + Foretinib; first compound 0.02 µM) | relative viability (Tosedostat + Foretinib; first compound 0.06325 µM) | relative viability (Tosedostat + Foretinib; first compound 0.2 µM) | relative viability (Tosedostat + Foretinib; first compound 0.6325 µM) | relative viability (Tosedostat + Foretinib; first compound 2 µM)
HCC-78 | 0.202 | 0.226 | 0.212 | 0.221 | 0.197 | 0.376 | 0.319 | 0.266 | 0.288 | 0.454 | 0.384 | 0.387 | 0.456 | 0.518 | 0.59 | 0.545 | 0.662 | 0.684
NCI-H1437 | 0.407 | 0.448 | 0.277 | 0.232 | 0.256 | 0.256 | 0.204 | 0.228 | 0.175 | 0.416 | 0.516 | 0.449 | 0.403 | 1.3 | 1.32 | 1.34 | 1.25 | 1.25
SK-LU-1 | 0.688 | 0.728 | 0.505 | 0.604 | 0.485 | 0.325 |  | 0.275 | 0.25 | 0.356 | 0.341 | 0.348 | 0.41 | 0.975 | 0.724 | 0.662 | 0.792 | 0.652
NCI-H2347 | 0.659 | 0.662 | 0.554 | 0.771 | 0.552 |  | 0.447 | 0.579 | 0.497 | 0.49 | 0.49 | 0.552 | 0.44 | 0.711 | 0.731 | 1.04 | 0.955 | 0.969
BEN | 0.679 | 0.622 | 0.556 | 0.752 | 0.804 | 0.505 | 0.423 | 0.454 | 0.46 | 1.2 | 0.767 | 0.966 | 1.07 | 0.713 | 0.825 | 0.799 | 0.878 | 0.846
LCLC-103H | 0.733 | 0.567 | 0.666 | 0.714 | 0.54 | 0.411 | 0.362 | 0.356 | 0.324 | 0.512 | 0.509 | 0.514 | 0.465 | 0.787 | 0.797 | 0.878 | 0.797 | 0.777
EKVX | 0.45 | 0.423 | 0.444 | 0.398 | 0.431 | 0.258 | 0.15 | 0.196 | 0.196 | 0.402 | 0.381 | 0.464 | 0.494 | 0.649 | 0.759 | 0.795 | 0.736 | 0.729
ABC-1 | 1 | 0.622 | 0.616 | 0.722 | 0.535 | 0.17 | 0.193 | 0.178 | 0.177 | 0.664 | 0.506 | 0.488 | 0.638 | 1.23 | 0.971 | 1.02 | 1.18 | 1.11
PC-3 [JPC-3] | 0.756 | 0.771 | 0.602 | 0.576 | 0.501 | 0.774 | 0.813 | 0.797 | 0.67 | 1 | 0.899 | 0.997 | 1.04 | 1.01 | 1.02 | 0.997 | 0.778 | 0.65
NCI-H23 | 0.523 | 0.466 | 0.48 | 0.451 | 0.324 | 0.312 |  | 0.275 | 0.46 | 0.164 | 0.272 | 0.327 | 0.302 | 1.01 | 0.889 | 0.919 | 0.827 | 0.69
NCI-H1793 | 0.484 | 0.31 | 0.507 | 0.403 | 0.329 | 0.368 | 0.302 | 0.219 | 0.195 | 0.761 | 0.74 | 0.762 | 0.738 | 0.559 | 0.789 | 0.742 | 0.629 | 0.637
LC-2-ad | 0.269 | 0.429 | 0.661 | 0.458 | 0.455 | 0.38 | 0.354 | 0.359 | 0.344 | 0.297 | 0.257 | 0.255 | 0.238 | 0.987 | 0.939 | 0.941 | 0.842 | 0.806
COR-L 105 | 0.451 | 0.414 | 0.379 | 0.319 | 0.356 | 0.328 | 0.375 | 0.365 | 0.427 | 0.556 | 0.703 | 0.819 | 0.901 | 1.3 | 0.8 | 1.06 | 0.753 | 0.69
H3255 | 0.659 | 0.45 | 0.409 | 0.42 | 0.533 | 0.619 | 0.489 | 0.589 | 0.542 | 0.483 | 0.498 | 0.5 | 0.527 | 0.871 | 0.902 | 1.02 | 0.709 | 0.796
NCI-H2087 | 1.09 | 0.791 | 0.946 | 0.529 | 0.684 | 0.194 | 0.157 | 0.156 | 0.114 | 0.502 | 0.34 | 0.485 | 0.425 | 1.3 | 1.13 | 1.06 | 0.98 | 0.941
NCI-H1915 | 1.24 | 0.955 | 1 | 0.815 | 0.838 | 0.265 | 0.222 | 0.222 | 0.192 | 0.202 | 0.17 | 0.184 | 0.162 | 1.13 | 1.1 | 1.14 | 1.05 | 0.947
HOP-62 | 0.94 | 0.676 | 0.717 | 0.487 | 0.867 | 0.296 | 0.288 | 0.205 | 0.222 | 0.388 | 0.116 | 0.192 | 0.279 | 1.27 | 1.09 | 1.09 | 1.02 | 1
